Consider 31 compounds from publication PMC6270614 (Molecules, 2013).

Each structure is given as a SMILES string. Like-named read-outs stand apart in the source and are kept apart here. Where only a bound is given, the exact number is not on record here.

Data set [1] addresses human cannabinoid CB1 receptor (Homo sapiens, UniProt P21554). Kind of data set: CB1 receptor radioligand ([3H]CP-55,940) displacement binding assay. Conditions: for inhibition at 1 µM: read-out: displacement of [3H]CP-55,940 in the preliminary screen (printed in the CB1 Ki column). Here is the method: In all cases, Ki values were calculated by applying the Cheng-Prusoff equation [34] to the IC50 values (obtained by GraphPad, GraphPad Software, Inc., La Jolla, CA, USA) for the displacement of the bound radioligand by increasing concentrations of the test compounds (after three separate experiments for each compound).
(In general: In a radioligand displacement assay an active substance lowers the binding of a labelled ligand.)

Where [2] appears, read: Experimental activity (pIC50, M), CoMFA training and test set input.
Where [3] appears, read: CB1 (Ki, nM), displacement of 0.5 nM [3H]CP-55,940, means ± SEM, n = 3, Cheng-Prusoff from IC50.
Setting [4] is: IC50 (CB1 displacement), displacement of [3H]CP-55,940.
The mark [5] stands for this setting: CoMFA training and test set input, read-out: Experimental activity (pIC50) (converted).

human cannabinoid CB1 receptor, sequence (P21554 whole entry): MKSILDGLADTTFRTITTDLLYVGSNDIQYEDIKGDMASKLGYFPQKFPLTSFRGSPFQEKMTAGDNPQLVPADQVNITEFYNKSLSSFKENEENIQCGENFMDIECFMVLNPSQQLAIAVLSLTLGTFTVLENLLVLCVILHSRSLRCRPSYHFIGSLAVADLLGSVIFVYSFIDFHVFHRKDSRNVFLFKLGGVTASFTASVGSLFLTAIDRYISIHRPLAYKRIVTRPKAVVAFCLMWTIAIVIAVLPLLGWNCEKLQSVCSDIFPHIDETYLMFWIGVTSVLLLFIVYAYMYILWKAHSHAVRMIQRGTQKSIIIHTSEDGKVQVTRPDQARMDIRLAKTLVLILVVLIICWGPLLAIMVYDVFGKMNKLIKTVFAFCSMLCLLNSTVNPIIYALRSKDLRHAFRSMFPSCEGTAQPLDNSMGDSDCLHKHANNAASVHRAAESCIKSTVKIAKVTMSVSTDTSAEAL

With `O=C(c1cccc2ccccc12)n1c(-c2ccccn2)nc2ccccc21` [Compound 10, Naphthalen-1-yl(2-(pyridin-2-yl)-1H-benzo[d]imidazol-1-yl)methanone], in data set [1], the inhibition at 1 µM was under 50%.

With `O=C(c1cccc2ccccc12)n1c(-c2ccccn2)nc2cc(F)ccc21` [Compound 11, (5-Fluoro-2-(pyridin-2-yl)-1H-benzo[d]imidazol-1-yl)(naphthalen-1-yl)methanone], the melting point (usually the temperature of the solid-liquid transition) lay within 167.2 to 167.9 °C. Also, the inhibition at 1 µM in data set [1] was under 50%.

In turn, `O=C(c1cccc2ccccc12)n1c(-c2ccccn2)nc2ccc(F)cc21` [Compound 12, (6-Fluoro-2-(pyridin-2-yl)-1H-benzo[d]imidazol-1-yl)(naphthalen-1-yl)methanone] came in with a melting point of 177.2 to 178 °C. Moreover, the inhibition at 1 µM in data set [1] was under 50%.

Turning to `Cc1cc2nc(-c3ccccn3)n(C(=O)c3cccc4ccccc34)c2cc1C` [Compound 13, (5,6-Dimethyl-2-(pyridin-2-yl)-1H-benzo[d]imidazol-1-yl)(naphthalen-1-yl)methanone], the melting point was 167.2 to 168 °C. Besides, the inhibition at 1 µM in data set [1] was under 50%.

`O=C(c1cccc2ccccc12)n1c(-c2cccnc2)nc2ccccc21` [Compound 14, Naphthalen-1-yl-(2-(pyridin-3-yl)-1H-benzo[d]imidazol-1-yl)methanone]: the melting point fell in the range of 148 to 148.1 °C. The IC50 in data set [1] (setting [2]) was 0.18 µM.

For `O=C(c1cccc2ccccc12)n1c(-c2cccnc2)nc2cc(F)ccc21` [Compound 15, (5-Fluoro-2-(pyridin-3-yl)-1H-benzo[d]imidazol-1-yl)(naphthalen-1-yl)methanone], the inhibitory constant (Ki) (commonly a dissociation constant, usually derived from enzyme kinetics or from competition with a known ligand) in data set [1] (setting [3]) amounted to 534 nM. Moreover, in data set [1] (setting [2]), the IC50 was 0.979 µM.

With `O=C(c1cccc2ccccc12)n1c(-c2cccnc2)nc2ccc(F)cc21` [Compound 16, (6-Fluoro-2-(pyridin-3-yl)-1H-benzo[d]imidazol-1-yl)(naphthalen-1-yl)methanone], the inhibition at 1 µM in data set [1] was under 50%.

Compound `Cc1cc2nc(-c3cccnc3)n(C(=O)c3cccc4ccccc34)c2cc1C` [Compound 17, (5,6-Dimethyl-2-(pyridin-3-yl)-1H-benzo[d]imidazol-1-yl)(naphthalen-1-yl)methanone] gave a melting point of 177.2 to 178 °C. The inhibition at 1 µM in data set [1] was under 50%.

Turning to `O=C(c1cccc2ccccc12)n1c(-c2ccncc2)nc2ccccc21` [Compound 18, Naphthalen-1-yl-(2-(pyridin-4-yl)-1H-benzo[d]imidazol-1-yl)methanone], the melting point was in the range of 155 to 156.1 °C. In data set [1] (setting [3]), this compound came in with an inhibitory constant (Ki) of 37.8 ± 5.3 nM. In data set [1] (setting [2]), this compound had an IC50 of 0.0693 µM.

Consider `O=C(c1cccc2ccccc12)n1c(-c2ccncc2)nc2cc(F)ccc21` [Compound 19, (5-Fluoro-2-(pyridin-4-yl)-1H-benzo[d]imidazol-1-yl)(naphthalen-1-yl)methanone], for which the melting point is 180.7 to 181.7 °C. In data set [1], the inhibition at 1 µM is under 50%.

For the compound `O=C(c1cccc2ccccc12)n1c(-c2ccncc2)nc2ccc(F)cc21` [Compound 20, (6-Fluoro-2-(pyridin-4-yl)-1H-benzo[d]imidazol-1-yl)(naphthalen-1-yl)methanone], the melting point was in the range of 190.4 to 190.9 °C. The inhibition at 1 µM in data set [1] is under 50%.

In turn, `Cc1cc2nc(-c3ccncc3)n(C(=O)c3cccc4ccccc34)c2cc1C` [Compound 21, (5,6-Dimethyl-2-(pyridin-4-yl)-1H-benzo[d]imidazol-1-yl)(naphthalen-1-yl)methanone] showed a melting point of 167.2 to 168 °C. This compound showed an inhibition constant (Ki) in data set [1] (setting [3]) of 3.95 ± 0.8 nM. In addition, in data set [1] (setting [2]), the IC50 was 0.00724 µM. Also, in data set [1] (setting [4]), the IC50 was under 0.01 µM.

`O=C(c1ccc2ccccc2c1)n1c(-c2ccccn2)nc2ccccc21` [Compound 22, Naphthalen-2-yl(2-(pyridin-2-yl)-1H-benzo[d]imidazol-1-yl)methanone] gave a melting point of 145 to 146 °C. For the same compound, the inhibition at 1 µM in data set [1] is under 50%.

In the case of `O=C(c1ccc2ccccc2c1)n1c(-c2ccccn2)nc2ccc(F)cc21` [Compound 23, (6-Fluoro-2-(pyridin-2-yl)-1H-benzo[d]imidazol-1-yl)(naphthalen-2-yl)methanone], the Ki in data set [1] (setting [3]) worked out at 11.4 ± 0.9 nM. Besides, the results for the IC50 in data set [1] (setting [2]) and in data set [1] (setting [4]) were 0.0209 µM and about 0.02 µM, respectively.

As to `Cc1cc2nc(-c3ccccn3)n(C(=O)c3ccc4ccccc4c3)c2cc1C` [Compound 24, (5,6-Dimethyl-2-(pyridin-2-yl)-1H-benzo[d]imidazol-1-yl)(naphthalen-2-yl)methanone], the melting point was in the range of 168.7 to 169.6 °C. The same compound registered an inhibition constant (Ki) in data set [1] (setting [3]) of 28.1 ± 2.3 nM. In data set [1] (setting [2]), this compound showed an IC50 of 0.0515 µM.

Consider `O=C(c1ccc2ccccc2c1)n1c(-c2cccnc2)nc2ccccc21` [Compound 25, Naphthalen-2-yl(2-(pyridin-3-yl)-1H-benzo[d]imidazol-1-yl)methanone], for which the melting point was 148 to 148.6 °C. For the same compound, the inhibition at 1 µM in data set [1] was under 50%.

On to `O=C(c1ccc2ccccc2c1)n1c(-c2cccnc2)nc2cc(F)ccc21` [Compound 26, (5-Fluoro-2-(pyridin-3-yl)-1H-benzo[d]imidazol-1-yl)(naphthalen-2-yl)methanone], for which, in data set [1] (setting [5]), the IC50 was 10.4 µM. In data set [1] (read-out: CB1 (Ki)), the Ki is 5700 ± 200 nM.

`O=C(c1ccc2ccccc2c1)n1c(-c2cccnc2)nc2ccc(F)cc21` [Compound 27, (6-Fluoro-2-(pyridin-3-yl)-1H-benzo[d]imidazol-1-yl)(naphthalen-2-yl)methanone] came in with a melting point of 167.2 to 167.7 °C. In data set [1] (setting [5]), the IC50 is 1.77 µM. Further, the inhibition constant (Ki) in data set [1] (read-out: CB1 (Ki)) stood at 963 ± 155 nM.

Compound `Cc1cc2nc(-c3cccnc3)n(C(=O)c3ccc4ccccc4c3)c2cc1C` [Compound 28, (5,6-Dimethyl-2-(pyridin-3-yl)-1H-benzo[d]imidazol-1-yl)(naphthalen-2-yl)methanone] displayed a melting point of 166.7 to 166.9 °C. This compound also came in with a Ki in data set [1] (setting [3]) of 567 ± 27.8 nM. In data set [1] (setting [2]), this compound gave an IC50 of 1.04 µM.

On to `O=C(c1ccc2ccccc2c1)n1c(-c2ccncc2)nc2ccccc21` [Compound 29, Naphthalen-2-yl(2-(pyridin-4-yl)-1H-benzo[d]imidazol-1-yl)methanone], for which the melting point was in the range of 145 to 146.1 °C. Moreover, the IC50 in data set [1] (setting [5]) was 8.22 µM. For the same compound, the Ki in data set [1] (read-out: CB1 (Ki)) stood at 4490 ± 133 nM.

In turn, `O=C(c1ccc2ccccc2c1)n1c(-c2ccncc2)nc2cc(F)ccc21` [Compound 30, (5-Fluoro-2-(pyridin-4-yl)-1H-benzo[d]imidazol-1-yl)(naphthalen-2-yl)methanone] returned a melting point of 195.7 to 200.6 °C. In data set [1] (setting [3]), this compound showed a Ki of 1030 ± 57.9 nM. Further, the IC50 in data set [1] (setting [2]) is 1.88 µM.

On to `O=C(c1ccc2ccccc2c1)n1c(-c2ccncc2)nc2ccc(F)cc21` [Compound 31, (6-Fluoro-2-(pyridin-4-yl)-1H-benzo[d]imidazol-1-yl)(naphthalen-2-yl)methanone], for which affinity in data set [1] (setting [3]) was put at a Ki of 5.55 ± 0.9 nM. Also, the IC50 in data set [1] (setting [2]) was 0.0102 µM; in data set [1] (setting [4]) it was under 0.01 µM.

In turn, `Cc1cc2nc(-c3ccncc3)n(C(=O)c3ccc4ccccc4c3)c2cc1C` [Compound 32, (5,6-Dimethyl-2-(pyridin-4-yl)-1H-benzo[d]imidazol-1-yl)(naphthalen-2-yl)methanone] registered a melting point of 160.4 to 160.9 °C. For the same compound, the inhibition at 1 µM in data set [1] is under 50%.

Compound `c1ccc(-c2nc3ccccc3n2Cc2cccc3ccccc23)nc1` [Compound 33, 1-(Naphthalen-1-ylmethyl)-2-(pyridin-2-yl)-1H-benzo[d]imidazole] had a melting point of 150.7 to 151.6 °C. Further, the inhibition at 1 µM in data set [1] was under 50%.

`Fc1ccc2c(c1)nc(-c1ccccn1)n2Cc1cccc2ccccc12` [Compound 34, 5-Fluoro-1-(naphthalen-1-ylmethyl)-2-(pyridin-2-yl)-1H-benzo[d]imidazole] had a melting point of 155.7 to 155.9 °C. For the same compound, in data set [1], the inhibition at 1 µM is under 50%.

`Fc1ccc2nc(-c3ccccn3)n(Cc3cccc4ccccc34)c2c1` [Compound 35, 6-Fluoro-1-(naphthalen-1-ylmethyl)-2-(pyridin-2-yl)-1H-benzo[d]imidazole]: the melting point fell in the range of 160.7 to 161.1 °C. For the same compound, the inhibition at 1 µM in data set [1] was under 50%.

`Cc1cc2nc(-c3ccccn3)n(Cc3cccc4ccccc34)c2cc1C` [Compound 36, 5,6-Dimethyl-1-(naphthalen-1-ylmethyl)-2-(pyridin-2-yl)-1H-benzo[d]imidazole] yielded a melting point of 155.5 to 156.1 °C. The affinity in data set [1] (setting [3]) corresponds to a Ki of 13 ± 1.1 nM. In data set [1] (setting [2]), this compound had an IC50 of 0.0239 µM. Further, the IC50 in data set [1] (setting [4]) is about 0.02 µM.

With `c1cncc(-c2nc3ccccc3n2Cc2cccc3ccccc23)c1` [Compound 37, 1-(Naphthalen-1-ylmethyl)-2-(pyridin-3-yl)-1H-benzo[d]imidazole], the melting point lay in the range of 160.2 to 161.1 °C. The same compound displayed a Ki in data set [1] (setting [3]) of 75.9 ± 16.6 nM. The IC50 in data set [1] (setting [2]) is 0.139 µM.

`Cc1cc2nc(-c3ccccn3)n(Cc3ccc4ccccc4c3)c2cc1C` [Compound 48, 5,6-Dimethyl-1-(naphthalen-2-ylmethyl)-2-(pyridin-2-yl)-1H-benzo[d]imidazole] came in with an inhibition constant Ki in data set [1] (setting [3]) of 47.4 ± 11.1 nM. This compound had an IC50 in data set [1] (setting [2]) of 0.0869 µM.

In data set [1] (setting [3]), `Fc1ccc2nc(-c3cccnc3)n(Cc3ccc4ccccc4c3)c2c1` [Compound 51, 6-Fluoro-1-(naphthalen-2-ylmethyl)-2-(pyridin-3-yl)-1H-benzo[d]imidazole] came in with a Ki of 10.7 ± 2.8 nM. Moreover, the values for the IC50 in data set [1] (setting [2]) and in data set [1] (setting [4]) were 0.0196 µM and about 0.02 µM, respectively.

As for `c1ccc2cc(Cn3c(-c4ccncc4)nc4ccccc43)ccc2c1` [Compound 53, 1-(Naphthalen-2-ylmethyl)-2-(pyridin-4-yl)-1H-benzo[d]imidazole], the IC50 in data set [1] (setting [5]) was 0.851 µM. The Ki in data set [1] (read-out: CB1 (Ki)) was 464 ± 30.3 nM.
